The structures appear in SMILES notation.

Results on 2 compounds are retold here after article PMC8437142 (The Journal of physiology, 2021).

In data set [1] the test system is opioid receptors. Conditions: ref Lewis et al., 2010; Doyle & Murphy, 2018; cited from earlier work.
Data set [2] in a line: Serum morphine and metabolites by UPLC-MS/MS after s.c. morphine. The conditions noted are these: rat, sc, 4 mg/kg.

Turning to `CN1CC[C@]23c4c5ccc(O[C@@H]6O[C@H](C(=O)O)[C@@H](O)[C@H](O)[C@H]6O)c4O[C@H]2[C@@H](O)C=C[C@H]3[C@H]1C5` [Morphine-3-glucuronide, morphine-3-glucuronide], the “affinity for opioid receptors” value in data set [1] is “no affinity”.

On to `CN1CC[C@]23c4c5ccc(O)c4O[C@H]2[C@@H](O[C@@H]2O[C@H](C(=O)O)[C@@H](O)[C@H](O)[C@H]2O)C=C[C@H]3[C@H]1C5` [Morphine-6-glucuronide, morphine-6-glucuronide], for which, in data set [2], the concentration at 4.5 h is less than 1 ng/mL.
